Test [1] can be described thus: Concentration-dependent survival of SW480 colon cancer line, luminescence detection with CellTiter-Glo, half-maximal inhibitory concentration (AID 1117338). The test is classed as functional. (In general: ATP-based viability assays read luminescence as a measure of living cells.)
Test [2] in a line: SNU-C1 cell viability reduction, dose response, CellTiter-Glo luminescence (AID 1117323). The test is classed as functional, cell-based.
Test [3] can be described thus: HCT116 cell viability decrease, GSK3B pretreatment – CellTiter-Glo, IC50, dose response (AID 1117339). It is filed as functional. To be noted: HCT-116.
Test [4] can be described thus: CellTiter-Glo luminescent dose response of DLD-1 viability loss (AID 1117352). It is filed as functional.
Test [5] in a line: RKO cell viability reduction, dose response, CellTiter-Glo luminescence (AID 1117322). The test is classed as functional.
The nature of test [6]: cytotoxicity toward HCT116 cells – cell-based, CellTiter-Glo luminescence, IC50, dose response (AID 1117332). It is filed as functional. To be noted: HCT-116.
The nature of test [7]: cytotoxicity toward Colo320 cells – cell-based, CellTiter-Glo luminescence, IC50, dose response (AID 1117334). It is filed as functional. To be noted: COLO 320.
A short description of test [8]: cytotoxicity toward HT-29 cells – cell-based, CellTiter-Glo luminescence, IC50, dose response (AID 1117330). The test is classed as functional.
A short description of test [9]: P. falciparum late gametocyte killing, dose response, luminescence (AID 1117278).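 Note: gametocytes exposed to compound for 24 hours.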 It is filed as functional, cell-based.
Test [10] in a line: Jurkat T cell cytotoxicity, dose response, cytotoxicity control for P. falciparum gametocyte viability project, luminescence (AID 1117277).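 Note: potency reflects loss of cellular ATP meaning fewer viable cells.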 It is filed as functional, cell-based.
The target of test [11] is Protein Tat (Human immunodeficiency virus type 1 group M subtype B (isolate HXB2)(HIV-1), UniProt P04608). The test is classed as functional.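 Note: tat binding to TAR RNA read out by fluorescence polarization.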
Test [12] can be described thus: HEp-2 cell cytotoxicity, dose response, cytotoxicity control for RSV inhibitor project, HTS (AID 2410). The conditions noted are these: human respiratory syncytial virus. The test is classed as functional.
A short description of test [13]: Vero cell cytotoxicity, dose response, cytotoxicity control for Vif-APOBEC3G degradation inhibitor project, Vero cells (AID 1117358). To be noted: Human immunodeficiency virus 1, Vero. It is filed as functional.
Test [14] in a line: Artemis endonuclease inhibitor potency, dose response, biochemical, fluorescence intensity (AID 720701).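 Note: Artemis endonuclease enzyme.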 It is filed as functional.
In test [15] the target is T1, Endoribonuclease toxin MazF (Escherichia coli K-12, UniProt P0AE70).
T1 sequence (P0AE70 whole entry): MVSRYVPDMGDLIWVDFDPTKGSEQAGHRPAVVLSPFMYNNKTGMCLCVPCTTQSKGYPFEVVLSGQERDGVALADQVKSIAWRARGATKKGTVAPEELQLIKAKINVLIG
Description: MazF toxin RNase activators, dose response, biochemical, fluorescence, single-stranded RNA substrate, uHTS hits (AID 588481). It is filed as functional.

In test [16] the target is T2, Fibrinogen beta chain (Homo sapiens, UniProt P02675). Description: Fluorescence polarization-based biochemical high throughput dose response assay to identify inhibitors that disrupt the binding of a cyclic peptide (Tn6) to the fibrin proteolytic product D-Dimer and fragment E complex [DD(E )].
Test [17] deals with T2, Fibrinogen beta chain. Description: Fluorescence polarization-based biochemical high throughput dose response assay to identify inhibitors that disrupt the binding of a cyclic peptide (Tn7) to the fibrin proteolytic product D-Dimer and fragment E complex [DD(E )]. In general terms: Polarisation of emitted light reports the rotation of a fluorescent probe.
Test [18] concerns the target T1, Endoribonuclease toxin MazF. Description: fluorescent RNA oligo signal without MazF, dose response, counter-screen for MazEF activator project, biochemical, fluorescence, single-stranded RNase substrate (AID 588502). It is filed as functional.
Test [19] has as its target RNA-editing ligase 1, mitochondrial (Trypanosoma brucei brucei, UniProt P86926). Briefly: TbREL1 ligase inhibitors, dose response, biochemical, fluorescence, Trypanosoma brucei (AID 1117295). The test is classed as functional.
Test [20] addresses E3 ubiquitin-protein ligase UHRF1 (Homo sapiens, UniProt Q96T88). Description: Counterscreen for inhibitors of 5-meCpG-binding domain protein 2 (MBD2): TRFRET-based biochemical high throughput dose response assay to identify inhibitors of binding of ubiquitin-like with PHD and ring finger domains 1 (UHRF1) to methylated oligonucleotide. (In general: Counterscreens check selectivity or assay interference.)

The text below walks through data of ChEMBL document CHEMBL1201862, “PubChem BioAssay data set” (2004).

Calls of active or inactive are those of the source.

T2 sequence (P02675 whole entry, the tested form may be a part): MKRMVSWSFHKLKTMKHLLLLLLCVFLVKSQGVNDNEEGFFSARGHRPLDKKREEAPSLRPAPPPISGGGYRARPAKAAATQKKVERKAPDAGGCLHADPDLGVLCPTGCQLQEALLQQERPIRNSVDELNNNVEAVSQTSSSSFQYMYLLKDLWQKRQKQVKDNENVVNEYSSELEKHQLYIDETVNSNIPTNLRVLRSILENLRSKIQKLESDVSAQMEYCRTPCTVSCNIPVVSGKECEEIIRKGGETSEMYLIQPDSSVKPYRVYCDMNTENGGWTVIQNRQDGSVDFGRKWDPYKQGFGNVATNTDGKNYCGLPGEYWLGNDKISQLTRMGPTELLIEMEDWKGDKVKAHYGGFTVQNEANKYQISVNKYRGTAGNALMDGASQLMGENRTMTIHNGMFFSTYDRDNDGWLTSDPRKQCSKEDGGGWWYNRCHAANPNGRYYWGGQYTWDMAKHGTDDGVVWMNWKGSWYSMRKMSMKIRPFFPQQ
Chain of E3 ubiquitin-protein ligase UHRF1 (Q96T88 whole entry, the tested form may be a part): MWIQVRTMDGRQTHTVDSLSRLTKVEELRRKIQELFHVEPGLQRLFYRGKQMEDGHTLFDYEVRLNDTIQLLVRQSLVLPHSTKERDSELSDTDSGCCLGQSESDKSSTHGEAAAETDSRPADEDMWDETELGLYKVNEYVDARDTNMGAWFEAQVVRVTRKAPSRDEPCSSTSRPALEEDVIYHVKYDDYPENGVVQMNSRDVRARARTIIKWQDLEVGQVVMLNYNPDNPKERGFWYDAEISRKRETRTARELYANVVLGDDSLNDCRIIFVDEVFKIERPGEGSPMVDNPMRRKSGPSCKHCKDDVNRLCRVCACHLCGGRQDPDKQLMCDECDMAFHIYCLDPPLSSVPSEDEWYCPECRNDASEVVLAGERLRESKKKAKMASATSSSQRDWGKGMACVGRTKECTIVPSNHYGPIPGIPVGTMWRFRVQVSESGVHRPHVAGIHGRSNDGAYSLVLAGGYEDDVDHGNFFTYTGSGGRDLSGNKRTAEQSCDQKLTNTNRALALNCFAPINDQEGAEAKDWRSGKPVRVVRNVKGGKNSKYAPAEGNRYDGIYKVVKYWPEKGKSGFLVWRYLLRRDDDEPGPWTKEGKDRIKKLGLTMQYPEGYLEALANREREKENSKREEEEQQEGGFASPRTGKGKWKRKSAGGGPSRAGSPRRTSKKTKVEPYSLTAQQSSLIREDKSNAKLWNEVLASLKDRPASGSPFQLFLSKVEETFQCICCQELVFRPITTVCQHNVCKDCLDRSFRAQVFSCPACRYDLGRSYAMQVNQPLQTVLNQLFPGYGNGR
Chain of Protein Tat (P04608 whole entry): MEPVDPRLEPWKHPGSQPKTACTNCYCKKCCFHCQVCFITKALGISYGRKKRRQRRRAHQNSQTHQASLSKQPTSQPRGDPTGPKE
Chain of RNA-editing ligase 1, mitochondrial (P86926 whole entry, the tested form may be a part): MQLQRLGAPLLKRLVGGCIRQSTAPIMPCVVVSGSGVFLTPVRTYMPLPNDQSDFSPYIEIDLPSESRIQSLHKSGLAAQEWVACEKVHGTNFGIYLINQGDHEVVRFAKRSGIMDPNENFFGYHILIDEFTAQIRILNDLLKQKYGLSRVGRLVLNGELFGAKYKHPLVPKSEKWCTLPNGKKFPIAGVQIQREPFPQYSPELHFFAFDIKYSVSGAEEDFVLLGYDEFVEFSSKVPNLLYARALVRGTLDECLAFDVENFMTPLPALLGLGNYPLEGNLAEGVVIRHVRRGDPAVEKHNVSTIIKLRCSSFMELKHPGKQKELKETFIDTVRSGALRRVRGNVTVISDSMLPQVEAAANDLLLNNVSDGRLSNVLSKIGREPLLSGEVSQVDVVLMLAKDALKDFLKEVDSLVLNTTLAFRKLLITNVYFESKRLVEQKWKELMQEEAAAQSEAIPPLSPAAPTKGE

As for `NC(=O)n1c(O)c(C(=O)c2cccs2)c2cc(Cl)ccc21`, the IC50 in [1] was 1.02 µM (active); in test [2], 0.537 µM (active); in [3], 3.79 µM (active); in test [4], 6.95 µM (inactive); in test [5] it was 4.7 µM (active); in test [6] it was 2.31 µM (active). Further, the IC50 in [7] is 1.64 µM (active); in [8], 5.6 µM (inactive).

`COc1ccc(C2CC(c3cccs3)=NN2C(=O)CSc2nnc(N)s2)cc1OC` (stereo not given): the IC50 was > 109 µM (inactive) in [9] and > 83.3 µM (inactive) in test [10].

Turning to `CCOc1ccc(-n2c(Cc3cc(O)nc(O)n3)nnc2SCC(=O)NC2CCCC2)cc1`, the IC50 in test [11] was > 100 µM (active).

For the compound `Cn1nc(C(F)(F)F)c(C#N)c1N1CCN(c2ccc(F)cc2)CC1`, the cytotoxic concentration (CC50) in test [12] is 8.85 µM (active); in test [13], > 40 µM (active).

In the case of `N#Cc1nc(-c2ccc(OCc3ccc(Cl)cc3)cc2)oc1NCCCn1ccnc1`, in [14], the IC50 is 4.52 µM (active).

On to `Cc1ccc2c(c1)[C@H]1[C@H](CO2)[C@H](c2ccccc2)[C@]2(C)C(=O)N(Cc3ccc(F)cc3)CC(=O)N12`, for which the concentration giving a half-maximal response (EC50) in test [15] is 3.83 µM (active); in [18], 63.9 µM (inactive). The IC50 in test [16] and in test [17] was > 83.3 µM (inactive) in each case.

With `C[C@@H](NCCCn1cnc2c(OCc3ccccc3)ncnc21)c1cccc2ccccc12`, in test [19], the IC50 was > 96.6 µM (inactive).

In the case of `CN(C)C(=O)c1cccc(-c2cnc3c(NC=O)cc(-c4ccccc4N(C)C)cn23)c1`, the IC50 in test [20] is > 43.8 µM (inactive).

As a reminder, the IC50 is the concentration needed to halve the response being measured. The CC50 is the concentration that lowers cell viability or growth by half. What is called EC50 is the concentration needed to bring the measured effect to its halfway point.
